This note sets out measurements from ChEMBL document CHEMBL5104138, “Discovery of pyridyl urea sulfonamide inhibitors of NaV1.7” (Bioorg Med Chem Lett, 2022).

The nature of data set [1]: Lipophilicity, logD of compound at pH 7.4. The note with it: buffer. Type of data set: physicochemical.
In data set [2] the target is T1, Sodium channel protein type 9 subunit alpha (Homo sapiens, UniProt Q15858). The data set can be described thus: Inhibition of human Nav1.7 by PatchXpress assay.
Target sequence in this assay (Q15858 whole entry): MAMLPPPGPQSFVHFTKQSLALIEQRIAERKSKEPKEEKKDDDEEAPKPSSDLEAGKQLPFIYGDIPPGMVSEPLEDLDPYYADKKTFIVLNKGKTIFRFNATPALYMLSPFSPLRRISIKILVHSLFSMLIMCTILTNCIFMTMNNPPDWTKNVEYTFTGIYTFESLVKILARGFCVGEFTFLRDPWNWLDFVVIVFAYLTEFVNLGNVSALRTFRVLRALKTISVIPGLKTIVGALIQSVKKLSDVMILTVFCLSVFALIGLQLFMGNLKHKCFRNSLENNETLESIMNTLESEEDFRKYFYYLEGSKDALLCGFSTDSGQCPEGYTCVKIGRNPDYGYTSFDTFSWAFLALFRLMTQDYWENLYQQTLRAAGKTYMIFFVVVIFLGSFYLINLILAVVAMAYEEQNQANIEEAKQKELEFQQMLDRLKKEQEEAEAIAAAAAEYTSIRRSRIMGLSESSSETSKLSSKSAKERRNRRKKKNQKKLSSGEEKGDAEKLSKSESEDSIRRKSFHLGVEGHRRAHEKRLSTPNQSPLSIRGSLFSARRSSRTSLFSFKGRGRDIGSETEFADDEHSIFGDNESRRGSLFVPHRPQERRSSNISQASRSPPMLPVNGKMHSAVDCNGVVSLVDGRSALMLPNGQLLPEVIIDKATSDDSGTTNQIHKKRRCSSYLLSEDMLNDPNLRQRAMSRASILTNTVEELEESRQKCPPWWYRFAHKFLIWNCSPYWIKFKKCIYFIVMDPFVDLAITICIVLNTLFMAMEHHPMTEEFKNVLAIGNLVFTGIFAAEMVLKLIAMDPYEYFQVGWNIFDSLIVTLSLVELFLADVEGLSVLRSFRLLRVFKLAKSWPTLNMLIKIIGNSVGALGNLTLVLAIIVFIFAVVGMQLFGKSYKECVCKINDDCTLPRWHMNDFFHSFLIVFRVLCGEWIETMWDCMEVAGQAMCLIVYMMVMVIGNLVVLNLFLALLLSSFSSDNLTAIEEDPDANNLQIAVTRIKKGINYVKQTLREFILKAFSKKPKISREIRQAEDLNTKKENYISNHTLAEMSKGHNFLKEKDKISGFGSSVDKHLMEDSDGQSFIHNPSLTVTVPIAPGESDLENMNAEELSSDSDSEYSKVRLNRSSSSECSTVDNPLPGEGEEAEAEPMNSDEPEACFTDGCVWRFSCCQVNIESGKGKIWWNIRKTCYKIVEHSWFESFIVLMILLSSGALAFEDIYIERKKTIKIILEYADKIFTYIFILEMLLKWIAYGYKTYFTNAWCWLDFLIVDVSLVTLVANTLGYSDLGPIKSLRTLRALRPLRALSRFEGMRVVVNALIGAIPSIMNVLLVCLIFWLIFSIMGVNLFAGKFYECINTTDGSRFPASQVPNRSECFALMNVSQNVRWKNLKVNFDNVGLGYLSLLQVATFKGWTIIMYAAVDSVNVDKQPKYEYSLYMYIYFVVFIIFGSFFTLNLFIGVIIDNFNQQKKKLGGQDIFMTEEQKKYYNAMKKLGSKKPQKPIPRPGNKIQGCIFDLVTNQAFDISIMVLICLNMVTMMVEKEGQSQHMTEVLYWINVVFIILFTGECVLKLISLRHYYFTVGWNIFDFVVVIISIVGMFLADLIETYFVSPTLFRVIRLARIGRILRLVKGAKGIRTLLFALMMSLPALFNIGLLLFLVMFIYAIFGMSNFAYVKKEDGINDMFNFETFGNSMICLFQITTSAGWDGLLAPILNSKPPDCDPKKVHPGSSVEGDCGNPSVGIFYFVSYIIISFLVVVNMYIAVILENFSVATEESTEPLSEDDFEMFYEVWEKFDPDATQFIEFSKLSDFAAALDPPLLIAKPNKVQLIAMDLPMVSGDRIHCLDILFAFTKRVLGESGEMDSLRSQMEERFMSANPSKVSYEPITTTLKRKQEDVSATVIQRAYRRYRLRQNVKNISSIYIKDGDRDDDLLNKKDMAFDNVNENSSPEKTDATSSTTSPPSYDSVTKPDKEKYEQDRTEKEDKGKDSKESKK
Data set [3] is described as follows: Clearance in rat at 0.5 mg/kg, iv. The note with it: in vivo.
Data set [4] deals with T2, Cytochrome P450 3A4 (Homo sapiens, UniProt P08684). Kind of data set: Time dependent inhibition of CYP3A4 in human liver microsomes using midazolam as substrate incubated for 30 mins. Type of data set: ADME, Microsome. (Liver microsomes are a subcellular fraction often used to study metabolism.)
T2 sequence (P08684 whole entry): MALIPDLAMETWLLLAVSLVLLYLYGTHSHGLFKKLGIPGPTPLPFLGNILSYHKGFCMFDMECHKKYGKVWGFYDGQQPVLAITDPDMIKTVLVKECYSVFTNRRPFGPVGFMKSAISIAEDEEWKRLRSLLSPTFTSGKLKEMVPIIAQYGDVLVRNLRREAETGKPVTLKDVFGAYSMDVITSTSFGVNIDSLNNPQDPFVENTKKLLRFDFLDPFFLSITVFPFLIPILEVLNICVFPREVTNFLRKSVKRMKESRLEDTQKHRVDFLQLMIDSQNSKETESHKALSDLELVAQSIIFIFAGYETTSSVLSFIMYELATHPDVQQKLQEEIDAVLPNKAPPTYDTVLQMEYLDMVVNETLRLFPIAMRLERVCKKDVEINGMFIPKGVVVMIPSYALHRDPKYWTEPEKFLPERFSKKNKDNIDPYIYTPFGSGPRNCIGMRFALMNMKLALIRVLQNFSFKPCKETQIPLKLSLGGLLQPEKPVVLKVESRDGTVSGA
In data set [5] the target is T2, Cytochrome P450 3A4. Kind of data set: Time dependent inhibition of CYP3A4 in human liver microsomes using midazolam as substrate preincubated for 30 mins followed by substrate addition. Format: ADME, Microsome.
The conditions of data set [6]: rat, in vivo, iv, 0.5 mg/kg.
Description: Unbound clearance in rat at 0.5 mg/kg, iv
Data set [7] has as its target T1, Sodium channel protein type 9 subunit alpha. The data set can be described thus: Inhibition of human Nav1.7 at 1 uM by PatchXpress assay relative to control.
Target sequence in this assay (Q15858 whole entry, looked up): as the sequence (Q15858 whole entry) above
The target of a further data set is Cytochrome P450 2C9 (Homo sapiens, UniProt P11712). Kind of data set: Inhibition of CYP2C9 (unknown origin) using diclofenac as substrate. Format: ADME.
Chain of Cytochrome P450 2C9 (P11712 whole entry): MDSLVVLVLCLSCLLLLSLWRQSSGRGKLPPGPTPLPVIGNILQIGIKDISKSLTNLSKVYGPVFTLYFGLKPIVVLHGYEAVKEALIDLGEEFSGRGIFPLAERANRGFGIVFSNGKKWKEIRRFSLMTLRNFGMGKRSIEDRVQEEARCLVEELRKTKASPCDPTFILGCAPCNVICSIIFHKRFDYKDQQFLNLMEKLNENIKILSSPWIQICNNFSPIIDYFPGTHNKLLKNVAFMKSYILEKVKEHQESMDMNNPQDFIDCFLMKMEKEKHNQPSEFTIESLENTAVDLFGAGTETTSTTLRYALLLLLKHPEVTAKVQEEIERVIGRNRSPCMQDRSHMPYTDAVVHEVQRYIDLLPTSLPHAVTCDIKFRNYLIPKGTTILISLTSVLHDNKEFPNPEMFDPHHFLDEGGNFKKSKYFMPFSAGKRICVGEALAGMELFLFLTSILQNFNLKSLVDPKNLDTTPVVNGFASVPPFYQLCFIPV
Data set [8] in a line: Intrinsic clearance in rat liver microsomes assessed as loss of parent compound incubated for 30 mins. As to conditions: read-out: CLH. Type of data set: ADME, Microsome.
Another data set has as its system Mus musculus. The data set can be described thus: Antinociceptive activity in UV burn-induced thermal hyperalgesia mouse model assessed as reduction in latency time at 30 mg/kg, po relative to control. On the set-up: scale not given: the % may be the effect or the level left. Format: functional.

With `CNC(=O)N(c1ccc(S(=O)(=O)Nc2ccon2)cn1)c1cc(Cl)c(-c2ccc(F)c(OCC(F)(F)F)c2)cc1OC`, in [1], the logD was found to be 0.9. Also, the concentration for half-maximal inhibition (IC50) was 0.023 µM in [2], over 50 µM against Cytochrome P450 3A4 [4] and over 50 µM against Cytochrome P450 3A4 [5]. The clearance in [3] was 91.7 mL/min/kg.
In the case of `CNC(=O)N(c1ccc(S(=O)(=O)Nc2ccon2)cn1)c1cc(Cl)c(-c2cc(F)c(F)c(F)c2)cc1OC`, in data set [1], the logD stood at 0.7. Further, the clearance in [3] is 33.3 mL/min/kg. The IC50 at Cytochrome P450 3A4 [4] and at Cytochrome P450 3A4 [5] was over 50 µM each time. For the same compound, the CL free in data set [6] is 4770 mL/min/kg.
On to `CNC(=O)C(c1ccc(S(=O)(=O)Nc2ccon2)cn1)c1ccc(-c2ccc(Cl)c(C)c2)cc1OC` (configuration not stated), for which the inhibition in data set [7] amounted to 4.9%.
Consider `COc1cc(-c2ccc(Cl)c(C)c2)ccc1N(C(C)=O)c1ccc(S(=O)(=O)Nc2ccon2)cn1`, for which, in data set [2], the 50% inhibitory concentration (IC50) was 2.91 µM.
As to `CNC(=O)N(c1ccc(S(=O)(=O)Nc2ccon2)cn1)c1cc(Cl)c(-c2cccc(OCC(F)(F)F)c2)cc1OC`, the values for the half-maximal inhibitory concentration (IC50) at Cytochrome P450 3A4 [4] and against Cytochrome P450 3A4 [5] were 35 µM and over 50 µM, respectively.
The matching figures for `CNC(=O)N(c1ccc(S(=O)(=O)Nc2ccon2)cn1)c1cc(Cl)c(-c2cc(OC)nc(C(F)(F)F)c2)cc1OC`: over 50 µM and over 50 µM.
In data set [1], `CNC(=O)N(c1ccc(S(=O)(=O)Nc2ccon2)cn1)c1ccc(-c2ccc(Cl)c(C)c2)cc1OC` registered a logD of 0.8. In addition, the IC50 in data set [2] is 0.087 µM; against Cytochrome P450 3A4 [4], over 50 µM; at Cytochrome P450 2C9, 3.3 µM; at Cytochrome P450 3A4 [5], over 50 µM. The compound also had a clearance in data set [3] of 14.7 mL/min/kg. The same compound gave a CL free in data set [6] of 6130 mL/min/kg. In [8], the microsomal CLint stood at 29 µL/min/mg.
On to `CNC(=O)N(c1ccc(S(=O)(=O)Nc2ncccn2)cn1)c1cc(F)c(-c2ccc(F)c(C(F)(F)F)c2)cc1OC`, for which, in data set [1], the pH-dependent lipophilicity (logD) was found to be 1.2. In data set [3], the clearance was 2.5 mL/min/kg. The half-maximal inhibitory concentration (IC50) on Cytochrome P450 3A4 [4] and against Cytochrome P450 3A4 [5] was over 50 µM throughout. In data set [6], the CL free was 817 mL/min/kg.
`CNC(=O)N(c1ccc(S(=O)(=O)Nc2ncccn2)cn1)c1cc(Cl)c(-c2ccc(F)c(OC(F)(F)F)c2)cc1OC` gave a pH-dependent lipophilicity (logD) in data set [1] of 1.6. The IC50 against Cytochrome P450 3A4 [4] is 11 µM; against Cytochrome P450 3A4 [5], over 50 µM.
The compound `CNC(=O)N(c1ccc(S(=O)(=O)Nc2ncccn2)cn1)c1cc(F)c(-c2cccc(C(F)(F)F)c2)cc1OC` came in with a log distribution coefficient (logD) in [1] of 1. The results for the IC50 (in [2]; against Cytochrome P450 3A4 [4]; at Cytochrome P450 3A4 [5]) were 0.13 µM, over 50 µM and 9 µM, respectively. In data set [3], this compound had a clearance of 0.5 mL/min/kg. The CL free in [6] turned out to be 267 mL/min/kg.
As for `COc1ccc2cc([C@H](C)C(=O)O)ccc2c1` [NAPROXEN], the Activity with Mus musculus is 87%.
As for `CNC(=O)N(c1ccc(S(=O)(=O)Nc2ccon2)cn1)c1cc(Cl)c(-c2ccc(F)c(C(F)(F)F)c2)cc1OC`, the results for the IC50 at Cytochrome P450 3A4 [4] and on Cytochrome P450 3A4 [5] were 12 µM and over 50 µM, respectively.
In data set [7], `COc1cc(-c2ccc(Cl)c(C)c2)ccc1N(C(=O)NC(C)C)c1ccc(S(=O)(=O)Nc2ccon2)cn1` had an inhibition of 3.9%.

In general, logD refers to the decadic logarithm of the distribution of all forms, ionised or not, between an organic phase and buffer at a given pH. For orientation: IC50 means the concentration at which inhibition is half-maximal. A word on the clearance: it is a measure of how efficiently the substance is removed, as volume per time. One may read the inhibition as the percentage by which the read-out fell short of the control.
